# Measured values: patent publication US20100324285A1, “ANTIINFLAMMATORY AGENT COMPRISING 2-AMINOPHENOL OR DERIVATIVE THEREOF AS ACTIVE INGREDIENT” (priority 2006, published 2010)
# Legend:
# [1] = tested on: Mouse melanoma cell line B16; assay: Melanin synthesis in B16 cells; type: cell-based; settings: for Amount of melanin (%): 5 days, per mg protein versus control; for inhibiting effect on melanin production in combinational use: used with 2-aminophenoxsazine-3-one
# Procedure: (§1) As control, a system with no test sample was provided. […] The amount of protein was measured by conventional Bradfordmethod and the amount of melanin per 1 mg of protein was calculated. The amount of melanin (%) was calculated according to Formula 4, and the living cell rate (%) was calculated according to Formula 5.
# As control, a system with no test sample was provided. […] The amount of protein was measured by conventional Bradford method and the amount of melanin per 1 mg of protein was calculated. The amount of melanin (%) was calculated according to Formula 4.
# RBL-2H3 = assay: Degranulation reaction of basocyte (β-hexosaminidase release); type: cell-based, rat; settings: for concentration at which inhibiting activity on degranulation was exerted: summary of Table 3
# Procedure: Degranulation rate (%) and inhibition rate of degranulation (%) were calculated based on the measurements of β-hexosaminidase activity in the granules released from the cells by degranulation reaction.
# Rat cancer cells from basocyte RBL-2H3(catalognumber“JCRB0023”, commercialized by Health Science Research Resources Bank of Japan Health Sciences Foundation), known to be degranulated by cross-linkage of IgE, were used after cultured in a MEM medium (commercialized by Nissui Pharmaceutical Co., Ltd.) supplemented with 10% (v/v) FCS.
# The above cells were recovered from a flask by conventional trypsin-EDTA treatment, then suspended in a MEM medium supplemented with 10% (v/v) FCS to give a cell concentration of 5×10^5 cells/ml. The suspension was inoculated to a 24-well microplate in a volume of 400 μl per well, cultured in a 5% (v/v) carbon dioxide incubator for 3 to 5 hours, then admixed with 0.625 μg/ml of anti dinitrophenol (hereinafter abbreviated as “DNP”) mouse IgE (commercialized by Sigma-Aldrich, Inc., diluted by MEM medium supplied with 10% (v/v) FCS) in a volume of 100 μl per well to sensitize the cells by IgE (a final concentration of the anti DNP-IgE was 0.125 μg/ml). After the cells were cultured in the 5% (v/v) carbon dioxide incubator overnight, the supernatant was removed by suction, and then each well was washed twice with Siraganian buffer (119 mM NaCl, 5 mM KCl, 0.4 mM MgCl2, 25 mM piperazine-N,N″-bis(2-ethane sulfonic acid) (PIPES), 40 mM NaOH, pH 7.2) by 500 μl per well. After admixed with Siraganian buffer containing 0.1% bovine serum albumin (BSA), 5.6 mM glucose and 1 mM CaCl2 (hereinafter described as “BSA-containing Siraganian buffer) in a volume of 160 μl per well, the microplate was warmed at 37° C. for 15 minutes. As test samples, 2-aminophenoxazine-3-one (questiomycin A), arbutin having skin-whitening effect and oxatomide used as therapeutic agents for allergic diseases (positive control) were diluted with BSA-containing Siraganian buffer to give the concentrations shown in Table 3, any of the test samples was added by 20 μl per well, then the microplate was warmed at 37° C. for 15 minutes (wells with the test samples). The well with any of the test samples was admixed with DNP-albumin (commercialized by Sigma-Aldrich, Inc.) diluted with BSA-containing Siraganian buffer to give a concentration of 50 μg/ml by 20 μl per well, and warmed at 37° C. for 15 minutes. After the 24-well microplate was cooled on ice for 10 minutes, the supernatant was collected and 100 μl thereof was injected into a 96-well microplate to measure the β-hexosaminidase activity in the supernatant. As negative control, BL-2H3 cells were cultured and treated in the same way as the wells admixed with the test samples except for that FCS-supplemented MEM medium containing no antibody was used, and the β-hexosaminidase activity in the supernatant was measured (the well without IgE sensitization). After the supernatants were removed from some of the wells without IgE sensitization, the wells were washed twice with BSA-containing Siraganian buffer and admixed with BSA-containing Siraganian buffer by 200 μl per well. The cells were broken by twice repeating freezing at −80° C. and thawing, whole medium containing the broken cells was collected, centrifuged at 1,500 rpm for 10 minutes, and then 100 μl of the supernatant was injected into a 96-well microplate to measure the β-hexosaminidase activity of the whole granule extract.
# Each well of the 96-well microplate injected with any of the supernatant from the wells with the test samples, the supernatant from the wells without IgE sensitization or the whole granule extract described above was admixed with 50 μl of citrate buffer (pH 4.5) containing 1 mM 4-nitrophenyl-N-acetyl-β-glucosaminide (PNAG) as substrate, kept at 37° C. for 1 hour, and then the reaction was stopped by adding 50 μl of 0.1 M sodium carbonate (pH 10.5). […]
# [2] = tested on: Mouse melanoma cell line B16; assay: Living cell rate of B16 cells; settings: mouse, 5 days
# Procedure: as §1
# RAW264.7 cells [3] = assay: NO production by macrophage RAW264.7, Griess method; type: cell-based, mouse; settings: LPS + IFN-γ, 2 days, relative level versus control
# Description: As macrophage cells, RAW264.7 cell strain from mouse or macrophage cells obtained from laboratory animals such as mouse can be used. The amount of produced NO can be measured by conventional Griess method. […] RAW264.7 cells, a murine macrophage cell strain, were suspended in PRMI1640 medium supplied with 10% (v/v) fetal calf serum (hereinafter abbreviated as “FCS”) to give a cell suspension with a cell concentration of 1×10^6 cells/ml. […] The experimental system without the test samples described above was set as control. […] NO production, PGE2 production and macrophage growth are indicated as relative levels versus controls.
# RAW264.7 cells [4] = assay: PGE2 production by macrophage RAW264.7, PGE2-EIA kit; type: cell-based, mouse; settings: LPS + IFN-γ, 2 days, relative level versus control
# Description: (§2) RAW264.7 cells, a murine macrophage cell strain, were suspended in PRMI1640 medium supplied with 10% (v/v) fetal calf serum (hereinafter abbreviated as “FCS”) to give a cell suspension with a cell concentration of 1×10^6 cells/ml. […] The experimental system without the test samples described above was set as control. […] NO production, PGE2 production and macrophage growth are indicated as relative levels versus controls.
# RAW264.7 cells [5] = assay: Macrophage growth, living cell count; type: cell-based, mouse; settings: 2 days, relative level versus control
# Description: as §2
smiles,measurement,setting,value
"OC[C@H]1O[C@H](O[C@H]2O[C@H](CO)[C@@H](O)[C@H](O)[C@H]2O)[C@H](O)[C@@H](O)[C@@H]1O [Trehalose, trehalose]",Amount of melanin (%),[1]; 20 mM,82%
same,Amount of melanin (%),[1]; 40 mM,75%
same,Amount of melanin (%),[1]; 80 mM,66%
same,inhibiting effect on melanin production in combinational use,[1],synergistically exert inhibiting effect on melanin production
"O=c1[nH]c2ccccc2n1CCCN1CCN(C(c2ccccc2)c2ccccc2)CC1 [OX, oxatomide]",inhibition at 1.5 µM,"RBL-2H3; Rattus norvegicus, RBL-2H3, 1.5 μM, read-out: Inhibition intensity of degranulation",-30 to 30%
same,inhibition at 5 µM,"RBL-2H3; Rattus norvegicus, RBL-2H3, 5 μM, read-out: Inhibition intensity of degranulation",-30 to 30%
same,inhibition at 23 µM,"RBL-2H3; Rattus norvegicus, RBL-2H3, 23 μM, read-out: Inhibition intensity of degranulation",30 to 50%
same,inhibition at 94 µM,"RBL-2H3; Rattus norvegicus, RBL-2H3, 94 μM, read-out: Inhibition intensity of degranulation",≥ 50%
same,concentration at which inhibiting activity on degranulation was exerted,RBL-2H3,≥ 23 µM
"O=c1cc(CO)occ1O [Koji acid, kojic acid]",Amount of melanin (%),[1]; 0.5 mM,79%
same,Amount of melanin (%),[1]; 1 mM,71%
same,Amount of melanin (%),[1]; 2 mM,59%
same,inhibiting effect on melanin production in combinational use,[1],synergistically exert inhibiting effect on melanin production
same,Living cell rate (%),[2]; 0.5 mM,93%
same,Living cell rate (%),[2]; 1 mM,86%
same,Living cell rate (%),[2]; 2 mM,73%
"COc1ccc2c(c1)c(CC(=O)O)c(C)n2C(=O)c1ccc(Cl)cc1 [IN, indomethacin]",NO production (%),RAW264.7 cells [3]; 0.16 μM,86%
same,NO production (%),RAW264.7 cells [3]; 0.31 μM,84%
same,NO production (%),RAW264.7 cells [3]; 0.63 μM,81%
same,NO production (%),RAW264.7 cells [3]; 1.3 μM,82%
same,NO production (%),RAW264.7 cells [3]; 2.5 μM,80%
same,NO production (%),RAW264.7 cells [3]; 5.0 μM,80%
same,NO production (%),RAW264.7 cells [3]; 10 μM,78%
same,PGE2 production (%),RAW264.7 cells [4]; 0.16 μM,4%
same,PGE2 production (%),RAW264.7 cells [4]; 0.31 μM,4%
same,PGE2 production (%),RAW264.7 cells [4]; 0.63 μM,4%
same,PGE2 production (%),RAW264.7 cells [4]; 1.3 μM,3%
same,PGE2 production (%),RAW264.7 cells [4]; 2.5 μM,1%
same,PGE2 production (%),RAW264.7 cells [4]; 5.0 μM,2%
same,PGE2 production (%),RAW264.7 cells [4]; 10 μM,1%
same,Macrophage growth (%),RAW264.7 cells [5]; 0.16 μM,102%
same,Macrophage growth (%),RAW264.7 cells [5]; 0.31 μM,104%
same,Macrophage growth (%),RAW264.7 cells [5]; 0.63 μM,108%
same,Macrophage growth (%),RAW264.7 cells [5]; 1.3 μM,117%
same,Macrophage growth (%),RAW264.7 cells [5]; 2.5 μM,120%
same,Macrophage growth (%),RAW264.7 cells [5]; 5.0 μM,122%
same,Macrophage growth (%),RAW264.7 cells [5]; 10 μM,120%
"O=C1O[C@H]([C@@H](O)CO)C(O)=C1O[C@H]1O[C@H](CO)[C@@H](O)[C@H](O)[C@H]1O [Ascorbic acid 2-glucoside, ascorbic acid 2-glucoside]",Amount of melanin (%),[1]; 2 mM,80%
same,Amount of melanin (%),[1]; 4 mM,68%
same,Amount of melanin (%),[1]; 8 mM,63%
same,inhibiting effect on melanin production in combinational use,[1],synergistically exert inhibiting effect on melanin production
CS(=O)(=O)Nc1ccc([N+](=O)[O-])cc1OC1CCCCC1 [NS],NO production (%),RAW264.7 cells [3]; 0.16 μM,90%
same,NO production (%),RAW264.7 cells [3]; 0.31 μM,89%
same,NO production (%),RAW264.7 cells [3]; 0.63 μM,87%
same,NO production (%),RAW264.7 cells [3]; 1.3 μM,85%
same,NO production (%),RAW264.7 cells [3]; 2.5 μM,85%
same,NO production (%),RAW264.7 cells [3]; 5.0 μM,88%
same,NO production (%),RAW264.7 cells [3]; 10 μM,84%
same,PGE2 production (%),RAW264.7 cells [4]; 0.16 μM,4%
same,PGE2 production (%),RAW264.7 cells [4]; 0.31 μM,4%
same,PGE2 production (%),RAW264.7 cells [4]; 0.63 μM,2%
same,PGE2 production (%),RAW264.7 cells [4]; 1.3 μM,1%
same,PGE2 production (%),RAW264.7 cells [4]; 2.5 μM,1%
same,PGE2 production (%),RAW264.7 cells [4]; 5.0 μM,5%
same,PGE2 production (%),RAW264.7 cells [4]; 10 μM,2%
same,Macrophage growth (%),RAW264.7 cells [5]; 0.16 μM,95%
same,Macrophage growth (%),RAW264.7 cells [5]; 0.31 μM,97%
same,Macrophage growth (%),RAW264.7 cells [5]; 0.63 μM,99%
same,Macrophage growth (%),RAW264.7 cells [5]; 1.3 μM,102%
same,Macrophage growth (%),RAW264.7 cells [5]; 2.5 μM,100%
same,Macrophage growth (%),RAW264.7 cells [5]; 5.0 μM,105%
same,Macrophage growth (%),RAW264.7 cells [5]; 10 μM,110%
"OC[C@H]1O[C@@H](Oc2ccc(O)cc2)[C@H](O)[C@@H](O)[C@@H]1O [AB, arbutin]",inhibition at 31.3 µM,"RBL-2H3; Rattus norvegicus, RBL-2H3, 31.3 μM, read-out: Inhibition intensity of degranulation",-30 to 30%
same,inhibition at 200 µM,"RBL-2H3; Rattus norvegicus, RBL-2H3, 200 μM, read-out: Inhibition intensity of degranulation",-30 to 30%
same,inhibition at 500 µM,"RBL-2H3; Rattus norvegicus, RBL-2H3, 500 μM, read-out: Inhibition intensity of degranulation",-30 to 30%
same,inhibition at 2000 µM,"RBL-2H3; Rattus norvegicus, RBL-2H3, 2000 μM, read-out: Inhibition intensity of degranulation",-30 to 30%
same,concentration at which inhibiting activity on degranulation was exerted,RBL-2H3,no inhibition activity on degranulation
